According to US20150051283A1, “COMPOSITION AND METHOD FOR INHIBITION OF PKNG FROM MYCOBACTERIUM TUBERCULOSIS” (priority 2013, published 2015):

Assays:
Assay type in all cases: biochemical
PknG [1] = molecular target: T1, PknG (Mycobacterium tuberculosis, UniProt P9WI73)
T1 construct: Full-length PknG was overexpressed in Escherichia coli BL21(DE3) cells; made in house; host or cells: Escherichia coli BL21(DE3)

PknG [2] = molecular target: T1, PknG; assay: PknG autophosphorylation (MALDI-TOF MS of tryptic phosphopeptides); settings: 30 μM, 10 min before autophosphorylation reaction
Protocol: (§1) FIGS. 4A-4D are a series of graphs depicting PknG kinase activity inhibition by OA-NO2, in which FIG. 4A depicts GarA phosphorylation by PknG by linear MALDI-TOF mass spectrum of: GarA (m/z 17145, dashed line), GarA phosphorylated by PknG using a molar ratio PknG:GarA of 1:20 (m/z 17222, grey line) and GarA phosphorylated by PknG pretreated with 50 μM OA-NO2 for 10 minutes (m/z 17143, black line), FIG. 4B is a series of three panels depicting PknG autophosphorylation with an upper panel illustrating linear MALDI-TOF spectrum of native PknG after tryptic digestion showing basal autophoshporylation pattern. Unphosphorylated peptide (m/z 5395.8), monophosphorylated (m/z 5475.4) and diphosphorylated species (m/z 5555.1) are detected as expected, a middle panel depicting linear MALDI-TOF spectrum of PknG after incubation with ATP and Mn^2+ and further typtic digestion (autophoshorylation positive control). […] After 10 minutes of incubation enzyme activities were determined. Samples were analyzed in triplicates; and FIG. 4D depicts time dependent inhibition of PknG by OA-NO2. […] At the indicated time points aliquots of control and treated PknG were removed, and enzyme inhibition was determined using Kinase Glo® by comparison with control activity. Samples were analyzed in triplicates. […]

PknG [3] = molecular target: T1, PknG; assay: Time course of PknG inhibition, Kinase Glo Plus luminescent kinase assay; settings: PknG 10 μM, 50 μM OA-NO2, pre-incubation 0 to 30 min, 25° C
Protocol: as §1

PknG [4] = molecular target: T1, PknG; assay: Reversibility of PknG inhibition by thiol reagents (DTT, GSH); settings: for effect of thiol reagent per se on control PknG kinase activity: 42 mM DTT or 24 mM GSH
PknG Rbx domain = molecular target: T2, PknG Rbx domain (Mycobacterium tuberculosis, UniProt P9WI73); assay: Iron release from Rbx domain of PknG (BPS spectrophotometric determination); settings: 50 μM of OA-NO2
T2 construct: Full-length PknG was overexpressed in Escherichia coli BL21(DE3) cells; made in house; host or cells: Escherichia coli BL21(DE3)
T2 sequence (P9WI73 whole entry, the tested form may be a part): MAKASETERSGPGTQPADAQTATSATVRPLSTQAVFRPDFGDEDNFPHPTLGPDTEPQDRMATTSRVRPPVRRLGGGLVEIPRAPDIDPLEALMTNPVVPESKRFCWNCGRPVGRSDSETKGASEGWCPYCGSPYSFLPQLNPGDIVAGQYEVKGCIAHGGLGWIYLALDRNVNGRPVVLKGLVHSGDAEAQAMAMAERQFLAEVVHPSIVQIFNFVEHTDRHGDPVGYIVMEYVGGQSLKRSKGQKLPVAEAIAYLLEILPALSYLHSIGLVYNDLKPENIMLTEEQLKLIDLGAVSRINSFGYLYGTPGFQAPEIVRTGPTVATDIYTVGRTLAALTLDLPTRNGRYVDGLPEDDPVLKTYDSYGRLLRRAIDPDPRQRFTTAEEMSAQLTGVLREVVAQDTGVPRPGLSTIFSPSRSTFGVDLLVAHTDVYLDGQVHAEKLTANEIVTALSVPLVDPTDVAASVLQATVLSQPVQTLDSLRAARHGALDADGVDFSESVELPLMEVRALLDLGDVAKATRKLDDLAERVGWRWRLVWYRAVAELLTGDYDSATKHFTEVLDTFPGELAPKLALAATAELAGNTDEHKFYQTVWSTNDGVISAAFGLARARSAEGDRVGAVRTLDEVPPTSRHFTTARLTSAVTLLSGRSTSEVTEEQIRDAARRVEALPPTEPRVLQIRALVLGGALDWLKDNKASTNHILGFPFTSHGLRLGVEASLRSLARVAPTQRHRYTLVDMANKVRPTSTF

T1 sequence (P9WI73 whole entry): as the sequence (P9WI73 whole entry, the tested form may be a part) above

CCCCCCCCC=CCCCCCCCC(=O)O [oleic acid, 9-octadecenoic acid, reference compound]
effect on kinase activity (control) (PknG [1]; equivalent concentrations to OA-NO2, data not shown): no effect

9- and 10-nitro-octadeca-9-cis-enoic acid [OA-NO2]
ability to phosphorylate GarA (PknG [1]; 30 μM, molar ratio OA-NO2:PknG 3:1, 10 minutes of preincubation): clearly decreased | IC50 (PknG [1]; PknG 8 μM, OA-NO2 0 to 80 μM, 10 min pre-incubation, 70 mM ammonium bicarbonate pH 8.0, 25° C, read-out: concentration at which 50% of enzyme inhibition was reached): 35 µM | kinase activity of PknG (PknG [1]; micromolar concentrations, molar excess ranging from 1:1 to 1:3): noticeably inhibited | autocatalytic (autophosphorylation) activity (PknG [2]): inhibited | kinase activity versus pre-incubation time (PknG [3]): decreased kinase activity in a time-dependent manner | effect of OA-NO2 on PknG activity (reversibility) (PknG [4]): irreversible | iron present at the Rbx domain released (PknG Rbx domain): 70%

N[C@@H](CCC(=O)N[C@@H](CS)C(=O)NCC(=O)O)C(=O)O [GSH]
effect of thiol reagent per se on control PknG kinase activity (PknG [4]): no effect

O[C@@H](CS)[C@@H](O)CS [DTT]
effect of thiol reagent per se on control PknG kinase activity (PknG [4]): no effect

NC(=O)CI [IAM, iodoacetamide, reference compound]
effect on kinase activity (PknG [1]; IAM treatment (up to 150 μM, PknG 10 μM), only free Cys156 modified): without affecting kinase activity
